Measurements as given in PMC7217877, “N-AS-triggered SPMs are direct regulators of microglia in a model of Alzheimer’s disease” (Nature Communications, 2020).
“And” between values parts separate entries of the source, which are not always exact repeats. Identical values can stand only once. Like-named read-outs stand apart in the source and are kept apart here.

How the values were obtained:
[1] = target: T1, COX2 WT (Homo sapiens, UniProt P35354); test: filter binding assay of [14C] N-AS to COX2; settings: COX2 Control; 0.2 uM (20 pmol); replicates
T1 construct: His (N); made in house
T1 sequence (P35354 18-604): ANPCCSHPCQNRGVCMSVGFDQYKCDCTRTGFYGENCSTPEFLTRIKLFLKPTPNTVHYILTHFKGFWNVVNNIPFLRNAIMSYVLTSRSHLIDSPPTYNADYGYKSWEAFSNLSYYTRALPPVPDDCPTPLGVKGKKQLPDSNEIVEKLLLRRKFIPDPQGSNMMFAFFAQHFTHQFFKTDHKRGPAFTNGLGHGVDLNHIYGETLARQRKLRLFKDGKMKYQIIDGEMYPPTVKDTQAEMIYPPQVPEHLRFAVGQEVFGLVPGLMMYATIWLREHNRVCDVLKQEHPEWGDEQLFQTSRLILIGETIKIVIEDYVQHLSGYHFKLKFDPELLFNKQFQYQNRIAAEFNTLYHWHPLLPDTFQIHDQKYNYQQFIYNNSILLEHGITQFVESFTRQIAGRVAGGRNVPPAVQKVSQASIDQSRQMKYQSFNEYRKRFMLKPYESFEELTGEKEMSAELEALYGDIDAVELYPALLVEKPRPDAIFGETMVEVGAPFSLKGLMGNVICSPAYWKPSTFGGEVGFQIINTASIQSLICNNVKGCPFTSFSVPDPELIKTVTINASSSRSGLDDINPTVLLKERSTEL

[2] = tested on: APP/PS1 mice; test: tau hyperphosphorylation (AT8) quantification (Fig 6g); assay type: in vivo, mouse
Experimental: (§1) Thioflavin S (Sigma-Aldrich) staining was carried out according to previously described procedures. We used 6E10 (mouse, 1:100, Signet, SIG39300), anti-20G10 (mouse, 1:1000, provided by D. R. Howlett, GlaxoSmithKline, Harlow, Essex, UK) for Aβ42, anti-G30 (rabbit, 1:1000, provided by D. R. Howlett) for Aβ40, SMA (mouse, 1:400, Sigma-Aldrich, A2547), AT8 (mouse, 1:500, Thermo Fisher Scientific, MN1020), Caspase-3 (mouse, 1:200, Novus Biologicals, NB100-56708), ac-S565 (rabbit, 1:100), COX2 (mouse, 1:250, Thermo Fisher Scientific, 35-8200), Iba1 (rabbit, 1:500, Wako, 019-19941 and goat, Abcam, ab5076), NeuN (mouse, 1:500, Millipore, MAB177), GFAP (rabbit, 1:500, Dako, N1506 and chicken, 1:500, Abcam, ab4674), and Lamp1 (mouse, 1:200, Abcam, ab24170). The sections were analyzed with a laser-scanning confocal microscope (FV3000; Olympus) or with a BX51 microscope (Olympus). MetaMorph software (Molecular Devices) was used to quantification. Three-dimensional reconstruction of microglia was recorded and analyzed using IMARIS software (Bitplane)[11]. For the analysis of age-dependent microglial COX2^+ CX3CR1^+ cells in WT and APP/PS1 mice, COX2 (rabbit, 1:100, Abcam, ab15191) and CX3CR1 (mouse, 1:100, BioLegend, 149008) antibody were used and the images were acquired on Alexa 488 and APC Channel with performed using Operetta CLS and Analysis Software 4.5 (Perkin-Elmer). […]

[3] = single-dose plasma PK; assay type: in vivo, C57BL/6 mice; settings: mouse; for AUC(0-inf): read-out: AUCinf (Plasma); for AUC(0-t): read-out: AUClast (Plasma)
Experimental: C57BL/6 mice were administered N-AS (Sigma-Aldrich, 01912) at doses of 1 mg kg^−1 (i.v.) or 10 mg kg^−1 (p.o.). Venous blood samples were collected at 5, 15, and 30 min, and 1, 2, 4, 8, and 24 h postdose. A 30 μl of plasma was separated from whole blood by centrifugation and stored at −80 °C until analysis. Also, brain samples were collected at 1, 2, 4, and 24 h postdose and heart, liver, and kidney samples were collected at 24 h postdose, thoroughly rinsed with physiological saline and weighed. Twenty percentage of tissue homogenates were prepared by homogenizing the tissue samples with four volumes of saline. A 30 μl aliquot of plasma or a 50 μl aliquot of tissue homogenates were deproteinized by addition of 200 μl cold methanol (containing naringenin as internal standard at 20 ng ml^−1) and centrifuged at 15,974×g for 10 min. A 10 μl aliquot of the supernatant was injected into Agilent 6470 LC-MS/MS system. Separation was performed on a Synergy Polar RP column (4 μm particle size, 2.0 mm ×150 mm, Phenomenex) using a mobile phase that consisted of methanol and water (85:15, v/v) with 0.1% formic acid at a flow rate of 0.2 ml min^−1. Quantification was carried out using multiple reaction monitoring (MRM) at m/z 340.3→263.3 for N-AS and m/z 271.1→151.3 for naringenin (internal standard) in negative ionization mode and collision energy of 20 eV. p, and relative oral BA values were calculated as follows: BA% = AUCp.o. normalized by p.o. dose/AUCi.v. normalized by i.v. dose × 100.

[4] = tested on: APP/PS1 mice; test: thioflavin S staining of Aβ plaques in cortex and hippocampus (Fig 6a); assay type: in vivo, mouse; settings: APP/PS1 + N-AS, individual values
Experimental: as §1

[5] = C57BL/6, plasma, iv, i.v. 1 mg/kg
[6] = C57BL/6, plasma, po, p.o. 10 mg/kg

## CCCCCCCCCCCCC/C=C/[C@@H](O)[C@H](CO)NC(C)=O [N-AS, N-((2S,3R,E)-1,3-Dihydroxyoctadec-4-en-2-yl)acetamide]
[1]
  binding velocity (Vbinding): 0.350 nM/min and 0.395 nM/min and 0.289 nM/min
[2]; APP/PS1 + N-AS, individual animals
  tau hyperphosphorylation (AT8) quantification (Figure 6g): 0.1647 and 0.1634 and 0.2394 and 0.275 and 0.2281 and 0.1841
[2]; APP/PS1 treated with N-AS
  tau hyperphosphorylation: reduced
[3]; [5]
  MRT: 2.27 ± 0.11 h
  half-life: 3.45 ± 0.16 h
  AUC(0-inf): 667 ± 28.8 ng·h/mL
  AUC(0-t): 665 ± 28.6 ng·h/mL
[3]; C57BL/6, plasma, oral, p.o. 10 mg/kg vs i.v. 1 mg/kg, read-out: BA (Bioavailability)
  bioavailability: 8.25%
[3]; [6]
  Cmax: 683 ± 141 ng/mL
  MRT: 3.1 ± 0.14 h
  Tmax: 0.25 h
  half-life: 3.68 ± 0.14 h
  AUC(0-inf): 550 ± 71.3 ng·h/mL
  AUC(0-t): 545 ± 72.1 ng·h/mL
[3]; i.v. 1 mg/kg
  Co (Plasma): 854.36 ± 128.60 ng/mL
[3]; p.o.
  bioavailability (BA), in words: low
[4]; Cortex
  area occupied by Aβ plaques (thioflavin S): 0.5468 and 0.5931 and 0.5106 and 0.2602 and 0.3052 and 0.2223 and 0.2101 and 0.1051
[4]; Hippocampus
  area occupied by Aβ plaques (thioflavin S): 0.3692 and 0.3742 and 0.26 and 0.2921 and 0.4067 and 0.08652 and 0.2333 and 0.1243
